From US20150178471A1, “IMPROVED CLINICAL EFFECT OF PHARMACEUTICAL PRODUCTS USING COMMUNICATION TOOL AND LIFE-STYLE FACTORS” (SCIENTIFICMED SWEDEN AB, priority 2012, published 2015)

Details: no combination product
Excerpt: Development and test of a combination product based on the pharmaceutical Zoloft and a specifically adapted QFM, including life-style improving factors, with a dependent software application • a. Test objectives; improve cardiovascular and diabetes symptoms • b. Main intervention factors; • i. an improved level of physical activity • ii. increased awareness of food intake • iii. an increased well-being based on improved administration of Zoloft • c. Follow-up variables: Weight and HbA1c • d. Period of Time Using the Combination Product: Five Months. • e. Period of time using only the pharmaceutical, i.e. no combination product, prior to the period of using the combination product: Two months • f. Period of time using only the software application, i.e. no combination product, after the period of using the combination product: Two weeks
The used set of questions for the specific QFM, including life-style improving factors, in the combination product based on Zoloft was the following: • Adherence to Zoloft: • The patient was asked to answer a question whether or not he/she had been adherent to Zoloft, and which dose the patient had taken; “I have taken my Zoloft today with the dose 25 mg/50 mg/100 mg/150 mg or 200 mg”. • Physical activity: • The patient was asked initially to set up an individual goal with the purpose of achieving an increased effect. […]

For CN[C@H]1CC[C@@H](c2ccc(Cl)c(Cl)c2)c2ccccc21 [Zoloft, Sertralin], the HbA1c (test period when the patient only was taking Zoloft (two months)) was “remained stable or slightly increased” and the Weight gained (test period when the patient only was taking Zoloft) was 1-2%.
